Experimental data taken from paper PMC4139204, “Insight into the Architecture of the NuRD Complex” (The Journal of Biological Chemistry, 2014).
“Also recorded” adds a separate entry of the source.

Experiments:
[1] = system: RbAp46 mutant (E356Q, D357N, E359Q, D360N, L30Y); conditions: D360N and L30Y; cited from earlier work
MTA1-RbAp48 complex [2] = experiment: Competition pulldown: FOG1-(1–15) peptide added to MTA1-FLAG-RbAp48 complex; format: binding, human; conditions: FLAG-RbAp48 on anti-FLAG beads; for effect of FOG1 peptide on MTA1-RbAp48 interaction: increasing amounts of FOG1-(1–15) peptide
Description: RbAp48 and MTA1 constructs were in vitro translated in the presence of ^35S-labeled methionine using the TNT Quick Coupled Transcription/Translation kit (Promega) according to the manufacturer's instructions. In vitro translated ^35S-labeled FLAG-RbAp48 (20 μl) was immobilized onto agarose beads conjugated to anti-FLAG (M2) antibodies (Sigma) in binding buffer (50 mM Tris, pH 7.5, 300 mM NaCl, 0.5% Triton X-100, complete protease inhibitor mixture tablet (Roche Applied Science), and 1 mM DTT). The mixture was incubated with in vitro translated ^35S-labeled-MTA1 fragments (40 μl) at 4 °C for 2 h. The beads were then washed five times with binding buffer. Anti-FLAG beads alone were used as a negative control. Complexes were resolved by SDS-PAGE and visualized by autoradiography.
(§1) The structural data provide clear evidence that histone H4 and MTA1 bind mutually exclusively to RbAp48. […] Competition-binding experiments were performed to assess whether full-length MTA1 might inhibit the interaction of RbAp48 with H3 or FOG1 peptides and to confirm that H4 and MTA1 bind mutually exclusively to RbAp48. GST-H4-(1–48) was expressed in bacteria, immobilized onto glutathione beads, and used to pull down RbAp48 in the absence and presence of full-length MTA1 (Fig. 7A). In a complementary experiment (Fig. 7B), in vitro translated FLAG-RbAp48 was immobilized on anti-FLAG beads and used to pull down MTA1 in the absence and presence of histone H4-(1–48).
(§2) FIGURE 7. […] A, pulldown showing the binding of in vitro translated ^35S-labeled RbAp48 to GST-histone H4-(1–48) (immobilized on glutathione beads) in the absence and presence of in vitro translated MTA1. B, pulldown showing the binding of in vitro translated ^35S-labeled MTA1 to FLAG-RbAp48 (immobilized on anti-FLAG beads) in the absence and presence of histone H4-(1–48). C, pulldown assays showing the effect of adding increasing amounts of FOG1-(1–15) peptide to a complex formed between in vitro translated ^35S-labeled FLAG-RbAp48 (immobilized on anti-FLAG beads) and in vitro translated ^35S-labeled full-length MTA1 or MTA1-(530–715). […]

RbAp48 [3] = target: T1, RbAp48 (Homo sapiens, UniProt Q09028); experiment: GST pulldown of in vitro translated 35S-RbAp48 by GST-MTA1 fragments; format: binding; conditions: GST-MTA1 fusion on glutathione-Sepharose beads with in vitro translated 35S-labeled RbAp48, 2 h, 4 °C; SDS-PAGE and autoradiography
T1 construct: made in house; host or cells: insect cells
T1 sequence (Q09028 whole entry, the tested form may be a part): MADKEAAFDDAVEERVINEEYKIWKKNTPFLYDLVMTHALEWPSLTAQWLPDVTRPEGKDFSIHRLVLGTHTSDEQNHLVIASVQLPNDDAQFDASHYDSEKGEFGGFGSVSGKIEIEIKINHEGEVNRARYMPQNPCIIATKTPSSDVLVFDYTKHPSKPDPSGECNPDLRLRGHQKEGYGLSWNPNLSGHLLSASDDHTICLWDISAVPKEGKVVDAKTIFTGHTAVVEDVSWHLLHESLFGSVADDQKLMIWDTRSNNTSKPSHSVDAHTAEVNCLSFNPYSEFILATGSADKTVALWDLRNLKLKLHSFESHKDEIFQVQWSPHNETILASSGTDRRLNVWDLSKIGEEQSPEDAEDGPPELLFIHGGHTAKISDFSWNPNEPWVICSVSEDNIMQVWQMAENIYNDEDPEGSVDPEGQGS
Source text: FLAG-tagged human RbAp48 (Uniprot: Q09028) was constructed by PCR and cloned into pcDNA3. MTA1 constructs (residues 1–250, 230–550, and 530–715) were generated by PCR amplification of the human gene (Uniprot: Q13330) and cloned into pcDNA3. MTA1 constructs (residues 530–635, 625–715, 643–695, and 656–686) were created by PCR amplification from codon-optimized sequences for bacterial expression (GenScript) and cloned into pGEX-6P with an N-terminal GST tag.
pcDNA3 constructs were expressed in vitro in the presence of [^35S]methionine. GST-MTA1 constructs were expressed in the BL21 strain of Escherichia coli and induced with 0.4 mM isopropyl 1-thio-β-D-galactopyranoside. The culture was incubated with shaking at 25 °C overnight, and the protein was subsequently purified by glutathione affinity chromatography. GST-H4-(1–48) was expressed and purified by glutathione affinity chromatography as described previously ([16]). Recombinant RbAp48 was expressed and purified from insect cells as described previously ([17]).
GST pulldown assays were performed by incubating equal amounts of GST or GST-MTA1 fusion proteins immobilized on glutathione-Sepharose beads (Amersham Biosciences) with in vitro translated ^35S-labeled RbAp48. The mixtures were incubated for 2 h at 4 °C and washed 5 times with binding buffer. Complexes were resolved by SDS-PAGE and visualized by autoradiography.

RbAp46/48 = conditions: GST pulldown; ref [47]; cited from earlier work
Source text: Previous studies using GST pulldown assays have mapped the domains that mediate the interaction between MTA1/2 and RbAp46/48. […] Our crystallographic and biochemical data reveal that a short motif near the C-terminal end of MTA1 is able to bind ind ...

RbAp48 [4] = target: T1, RbAp48; experiment: Isothermal titration calorimetry (ITC) of MTA1 peptides binding to RbAp48; conditions: MicroCal iTC200, 25 °C, 20 mM Tris, pH 7.5, 150 mM NaCl, MTA1 peptide (250 μM) titrated into RbAp48 (25 μM, 200 μl), 20 injections of 2 μl, single-site 1:1 fit, representative measurement, standard error from single curve fit, each titration in duplicate, read-out: dissociation constant (KD)
Description: pcDNA3 constructs were expressed in vitro in the presence of [^35S]methionine. […] GST-H4-(1–48) was expressed and purified by glutathione affinity chromatography as described previously ([16]). Recombinant RbAp48 was expressed and purified from insect cells as described previously ([17]).
ITC measurements were carried out at 25 °C using a MicroCal iTC200 titration calorimeter. […] The reference power was set to 2 μcal/s, and the cell was stirred continuously at 1000 rpm. The evolved heats were integrated and normalized for protein concentration.

RbAp46 = conditions: for RbAp46; ref [16]; cited from earlier work
MTA1-RbAp48 complex [5] = experiment: Competition pulldown: FLAG-RbAp48 pulls down MTA1 in absence and presence of histone H4-(1–48); format: binding, human; conditions: FLAG-RbAp48 on anti-FLAG beads, in vitro translated 35S-labeled MTA1, absence and presence of histone H4-(1–48)
Description: as §1, §2

## GST-tagged H4 (residues 1–48): GST-H4-(1–48) expressed in bacteria and purified by glutathione affinity chromatography
[1]
  effect of RbAp46 mutations on interaction with H4: abrogate its interaction

## FOG1-(1–15): peptide (residues 1–15) derived from the co-regulator FOG1
MTA1-RbAp48 complex [2]; C-terminal MTA1 fragment (residues 530–715)
  effect of FOG1 peptide on MTA1-RbAp48 interaction: The same result was observed
MTA1-RbAp48 complex [2]; Fig. 7, full-length MTA1 or MTA1-(530–715)
  competition for binding to RbAp48 (Fig. 7 title): do not compete for binding to RbAp48
MTA1-RbAp48 complex [2]; full-length MTA1
  effect of FOG1 peptide on MTA1-RbAp48 interaction: unable to interfere with the MTA1-RbAp48 interaction

## CC[C@H](C)[C@H](NC(=O)[C@H](CCCCN)NC(=O)[C@H](CCCNC(=N)N)NC(=O)[C@@H](NC(=O)[C@H](CCC(=O)O)NC(=O)[C@H](CCC(=O)O)NC(=O)[C@@H](NC(=O)[C@H](C)NC(=O)[C@H](CCSC)NC(=O)[C@H](Cc1ccc(O)cc1)NC(=O)[C@H](Cc1ccccc1)NC(=O)[C@@H](NC(=O)[C@H](CC(=O)O)NC(C)=O)C(C)C)[C@@H](C)O)[C@@H](C)O)C(=O)N[C@@H](CCCNC(=N)N)C(=O)N[C@@H](CCCCN)C(=O)N[C@@H](CC(C)C)C(=O)N[C@@H](CC(C)C)C(=O)N[C@@H](CO)C(=O)N[C@@H](CO)C(=O)N[C@@H](CO)C(=O)N[C@@H](CCC(=O)O)C(=O)N[C@H](C(=O)N[C@@H](CCCCN)C(=O)N[C@@H](CCCNC(=N)N)C(=O)N[C@@H](C)C(=O)N[C@@H](C)C(=O)N[C@@H](CCCNC(=N)N)C(=O)N[C@@H](CCCNC(=N)N)C(=O)N1CCC[C@H]1C(=O)N[C@@H](Cc1ccc(O)cc1)C(=O)N[C@@H](CCCCN)C(N)=O)[C@@H](C)O [MTA1-(656–686)]
RbAp48 [3]
  binding to RbAp48 in GST pulldown: sufficient to bind RbAp48; also recorded: shortest fragment of MTA1 capable of pulling down in vitro translated RbAp48

## GATA-type zinc finger domain of MTA1 (residues 392–448): predicted GATA-type zinc finger domain of MTA1 (ACESCYTTQSYQWYSWGPPNMQCRLCASCWTYWKKYGGLKMPTRLDGERPGPNRSNM; GATA-type zinc finger; UniProt Q13330 392-448, looked up, fragment)
RbAp46/48
  recognition of RbAp46/48: sufficient to recognize RbAp46/48

## Ac-KLLSSSETKRAARRPYKPIALRQSQA-NH2 [MTA1-(670–695)]
RbAp48 [4]
  Kd: 50 ± 7 nM

## H4-(1–48): histone H4 residues 1–48
RbAp46
  Kd: 1000 nM
MTA1-RbAp48 complex [5]
  competition of histone H4 with MTA1 for RbAp48: compete for the same binding surface on RbAp48
